# Measured values published in patent publication US20080267941A1, “Nutrition Comprising Betaine Against Muscle Wasting” (N. V. Nutricia, priority 2005, published 2008).
# Structures can show the parent of a compound that is named as a salt.
# Tested on: muscles of normal healthy rats
# Assay: Resting muscle glycogen levels in rats after 6 weeks of oral betaine supplementation
# Type: in vivo, rat
# Details: for Resting glycogen levels in rats: male Wistar rats, 60 mg betaine in 1 ml vanilla custard orally each day for 6 weeks, *P < 0.05
# Method: Experiments were performed on 8 male Wistar rats, 250-300 gram, which were housed individually, and had free access to water and food. All experimental procedures were approved by the Institutional Animal Care and Use Committee of the Netherlands, and complied with the principles of laboratory animal care. To determine the effect of oral betaine supplementation, the betaine group (n=4) received 1 ml vanilla custard each day in combination with 60 mg betaine (Sigma Aldrich), and the control group (n=4) received 1 ml vanilla custard. After 6 weeks of supplementation, the fast extensor digitorum longus, (EDL) and slow-(soleus) muscles were removed for further biochemical analysis and frozen in liquid nitrogen. Muscles were stored at −80° C. until analysis. Thereafter, muscles were freeze-dried during 3 days at −4° C. The freeze-dried muscles were crushed to powder, 400 μl 1M HCl was added to approximately 10 mg tissue and hydrolysed at 98° C. during 2 hours. After cooling down, 400 μl 1M NaOH was added to neutralize the samples and the samples were centrifuged 5 minutes at 13,000 rpm. Glycogen content was determined fluorimetrically by a glucose kit (Roche Diagnostics) and expressed as μmol glycosyl units·g^−1.
structure (smiles),measurement,setting,value
"C[N+](C)(C)CC(=O)O [betaine, 1-carboxy-N,N,N-trimethylmethanaminium inner salt]",Resting glycogen levels in rats,EDL (fast extensor digitorum longus) muscle,120 + 4* μmol glycosyl units/g tissue
same,Resting glycogen levels in rats,Soleus (slow) muscle,137 ± 16* μmol glycosyl units/g tissue
same,glycogen content of the muscle cells,rats given vanilla custard containing betaine vs vanilla custard control,significantly increases
